This passage reports IC50 results from the Kinase Knowledgebase extract (Sharma et al. 2016).

The target in one assay is PIK3CG (human) (UniProt P48736). In words: Assessment of PIK3CG Kinase Activity.
The target in assay [1] is PIK3CB (Human) (UniProt P42338). In words: Assessment of PIK3CB Kinase Activity.
The target in assay [2] is PIK3CA (human) (UniProt P42336). Description: Assessment of PIK3CA Kinase Activity.
Assay [3] has as its target PIK3CD (Human) (UniProt O00329). In words: Assessment of PIK3CD Kinase Activity.
For assay [4] the target is unchanged. In words: Assessment of PIK3CD Kinase Activity in RAJI Cells.
Assay [5] has as its target PIK3CA (human) (UniProt P42336). Description: Assessment of PIK3CA Kinase Activity in SKOV-3 Cells.
Assay [6] concerns the target PIK3CB (Human) (UniProt P42338). In words: Assessment of PIK3CB Kinase Activity in 786-O Cells.

Where only a bound is given, the exact number is not on record here.

Sequence of PIK3CA (human) (P42336 whole entry, looked up): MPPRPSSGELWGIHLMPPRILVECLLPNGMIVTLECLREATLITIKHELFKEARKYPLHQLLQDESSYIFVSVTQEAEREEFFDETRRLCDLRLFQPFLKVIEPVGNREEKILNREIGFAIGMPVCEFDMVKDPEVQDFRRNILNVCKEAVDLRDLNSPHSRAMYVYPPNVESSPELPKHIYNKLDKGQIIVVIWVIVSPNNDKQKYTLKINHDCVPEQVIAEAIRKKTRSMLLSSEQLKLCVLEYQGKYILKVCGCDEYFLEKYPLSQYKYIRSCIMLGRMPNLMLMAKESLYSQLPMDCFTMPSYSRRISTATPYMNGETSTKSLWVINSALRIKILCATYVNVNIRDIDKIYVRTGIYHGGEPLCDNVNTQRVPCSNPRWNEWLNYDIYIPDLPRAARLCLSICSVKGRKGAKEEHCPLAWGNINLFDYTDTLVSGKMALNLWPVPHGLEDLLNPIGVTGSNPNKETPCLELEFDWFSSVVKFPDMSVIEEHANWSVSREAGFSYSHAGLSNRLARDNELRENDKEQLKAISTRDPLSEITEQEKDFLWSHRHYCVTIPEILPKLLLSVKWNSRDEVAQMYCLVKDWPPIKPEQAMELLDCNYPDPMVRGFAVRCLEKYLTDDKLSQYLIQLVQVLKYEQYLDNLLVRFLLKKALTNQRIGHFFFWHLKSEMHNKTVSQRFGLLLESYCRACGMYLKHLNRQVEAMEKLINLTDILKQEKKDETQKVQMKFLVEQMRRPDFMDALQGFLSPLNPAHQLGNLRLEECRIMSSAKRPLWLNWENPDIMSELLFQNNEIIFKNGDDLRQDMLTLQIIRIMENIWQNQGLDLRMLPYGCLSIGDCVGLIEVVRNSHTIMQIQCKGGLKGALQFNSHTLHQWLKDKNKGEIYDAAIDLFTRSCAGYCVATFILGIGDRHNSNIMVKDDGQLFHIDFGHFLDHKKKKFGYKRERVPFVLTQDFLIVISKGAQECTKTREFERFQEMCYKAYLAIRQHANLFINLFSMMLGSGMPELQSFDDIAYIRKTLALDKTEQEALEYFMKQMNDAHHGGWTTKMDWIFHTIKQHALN
Sequence of PIK3CD (Human) (O00329 whole entry, looked up): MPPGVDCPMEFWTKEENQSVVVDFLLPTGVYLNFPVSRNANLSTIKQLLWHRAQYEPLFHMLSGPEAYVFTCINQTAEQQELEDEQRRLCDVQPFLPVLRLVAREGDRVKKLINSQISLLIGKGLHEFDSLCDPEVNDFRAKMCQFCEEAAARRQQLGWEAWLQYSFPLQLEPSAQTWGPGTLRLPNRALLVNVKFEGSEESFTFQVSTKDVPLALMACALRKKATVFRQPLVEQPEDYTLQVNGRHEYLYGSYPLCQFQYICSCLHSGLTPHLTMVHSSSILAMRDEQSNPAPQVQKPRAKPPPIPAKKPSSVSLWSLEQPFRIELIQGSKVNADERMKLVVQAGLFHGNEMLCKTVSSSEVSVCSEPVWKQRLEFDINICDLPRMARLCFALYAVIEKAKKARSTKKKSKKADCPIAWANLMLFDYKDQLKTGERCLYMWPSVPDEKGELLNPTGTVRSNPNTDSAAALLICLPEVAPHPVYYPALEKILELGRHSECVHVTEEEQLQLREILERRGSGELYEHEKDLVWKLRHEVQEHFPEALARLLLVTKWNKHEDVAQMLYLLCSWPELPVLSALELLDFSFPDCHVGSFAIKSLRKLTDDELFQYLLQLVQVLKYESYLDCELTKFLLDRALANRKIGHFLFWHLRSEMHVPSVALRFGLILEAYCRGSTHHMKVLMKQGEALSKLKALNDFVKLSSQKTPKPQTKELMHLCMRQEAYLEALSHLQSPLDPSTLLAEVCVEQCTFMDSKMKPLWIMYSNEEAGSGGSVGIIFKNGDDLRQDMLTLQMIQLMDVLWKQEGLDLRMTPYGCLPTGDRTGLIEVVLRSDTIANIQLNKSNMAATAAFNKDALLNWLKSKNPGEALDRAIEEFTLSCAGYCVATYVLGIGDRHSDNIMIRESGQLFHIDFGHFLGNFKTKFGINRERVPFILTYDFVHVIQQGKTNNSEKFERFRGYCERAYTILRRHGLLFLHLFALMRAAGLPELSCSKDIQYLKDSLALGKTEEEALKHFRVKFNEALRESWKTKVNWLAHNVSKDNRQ
Sequence of PIK3CG (human) (P48736 whole entry, looked up): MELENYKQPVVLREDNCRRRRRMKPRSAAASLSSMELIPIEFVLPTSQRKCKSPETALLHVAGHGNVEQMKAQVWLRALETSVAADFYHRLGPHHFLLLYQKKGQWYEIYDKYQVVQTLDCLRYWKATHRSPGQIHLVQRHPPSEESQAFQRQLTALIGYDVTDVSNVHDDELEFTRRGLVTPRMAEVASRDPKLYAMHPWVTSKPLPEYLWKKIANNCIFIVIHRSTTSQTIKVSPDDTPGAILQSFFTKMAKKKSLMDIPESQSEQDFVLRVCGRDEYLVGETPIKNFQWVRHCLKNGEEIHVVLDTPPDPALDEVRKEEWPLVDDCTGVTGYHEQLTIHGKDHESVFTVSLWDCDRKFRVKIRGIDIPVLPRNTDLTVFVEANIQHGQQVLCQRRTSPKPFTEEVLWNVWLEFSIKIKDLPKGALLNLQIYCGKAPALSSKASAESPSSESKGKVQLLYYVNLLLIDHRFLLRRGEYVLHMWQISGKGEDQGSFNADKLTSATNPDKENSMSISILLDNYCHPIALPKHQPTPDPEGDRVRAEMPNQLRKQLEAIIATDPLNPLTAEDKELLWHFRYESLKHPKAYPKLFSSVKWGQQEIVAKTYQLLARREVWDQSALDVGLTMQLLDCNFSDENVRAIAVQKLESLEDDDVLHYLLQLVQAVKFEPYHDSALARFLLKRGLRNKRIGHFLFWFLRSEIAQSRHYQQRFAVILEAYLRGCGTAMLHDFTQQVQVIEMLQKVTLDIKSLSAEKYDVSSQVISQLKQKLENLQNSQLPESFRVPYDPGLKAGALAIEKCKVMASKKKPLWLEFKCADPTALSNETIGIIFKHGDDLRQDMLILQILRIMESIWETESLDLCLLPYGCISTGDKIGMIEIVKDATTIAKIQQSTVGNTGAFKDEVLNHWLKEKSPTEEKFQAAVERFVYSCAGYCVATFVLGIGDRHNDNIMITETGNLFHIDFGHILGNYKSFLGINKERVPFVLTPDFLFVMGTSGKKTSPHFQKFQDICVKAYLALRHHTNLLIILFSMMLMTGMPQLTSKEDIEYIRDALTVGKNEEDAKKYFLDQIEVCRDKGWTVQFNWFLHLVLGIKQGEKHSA
Sequence of PIK3CB (Human) (P42338 whole entry, looked up): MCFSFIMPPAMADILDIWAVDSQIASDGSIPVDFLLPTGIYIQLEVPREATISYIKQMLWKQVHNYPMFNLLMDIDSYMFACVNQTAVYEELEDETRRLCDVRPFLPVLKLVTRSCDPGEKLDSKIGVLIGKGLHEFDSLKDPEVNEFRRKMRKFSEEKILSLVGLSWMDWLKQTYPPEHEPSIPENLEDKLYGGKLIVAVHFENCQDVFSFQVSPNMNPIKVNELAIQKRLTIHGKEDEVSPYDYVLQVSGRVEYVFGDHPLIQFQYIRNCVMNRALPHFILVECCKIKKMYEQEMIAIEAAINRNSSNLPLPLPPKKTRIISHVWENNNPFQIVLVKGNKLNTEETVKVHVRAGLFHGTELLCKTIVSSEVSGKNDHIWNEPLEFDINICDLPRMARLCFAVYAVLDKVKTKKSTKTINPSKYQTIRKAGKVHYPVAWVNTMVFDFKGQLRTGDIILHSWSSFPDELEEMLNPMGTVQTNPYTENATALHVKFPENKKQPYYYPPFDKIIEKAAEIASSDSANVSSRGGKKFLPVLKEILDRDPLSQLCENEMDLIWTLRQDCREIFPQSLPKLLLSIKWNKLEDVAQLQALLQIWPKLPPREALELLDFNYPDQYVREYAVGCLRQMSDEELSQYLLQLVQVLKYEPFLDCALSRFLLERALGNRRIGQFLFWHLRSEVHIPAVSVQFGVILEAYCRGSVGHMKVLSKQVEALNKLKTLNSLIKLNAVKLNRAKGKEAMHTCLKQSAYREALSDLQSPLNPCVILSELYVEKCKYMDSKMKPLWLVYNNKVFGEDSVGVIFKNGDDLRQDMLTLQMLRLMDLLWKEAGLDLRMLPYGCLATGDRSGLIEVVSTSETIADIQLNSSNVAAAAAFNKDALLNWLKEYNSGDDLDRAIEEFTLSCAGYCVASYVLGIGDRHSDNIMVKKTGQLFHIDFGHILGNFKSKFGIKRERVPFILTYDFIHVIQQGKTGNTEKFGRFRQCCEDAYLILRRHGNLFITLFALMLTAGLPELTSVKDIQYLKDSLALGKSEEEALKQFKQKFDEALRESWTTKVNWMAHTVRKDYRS

In general, IC50 refers to the concentration that inhibits the measured activity by half. Read a low IC50 as higher potency. With `COc1ncc(-c2cccc3cc([C@H](C)Nc4ncnc(N)c4C#N)n(-c4ccccc4)c(=O)c23)cn1`, the IC50 against PIK3CG (human) was 100 to 1000 nM; against PIK3CB (Human) [1], above 10000 nM; against PIK3CA (human) [2] it was above 10000 nM; against PIK3CD (Human) [3] it was below 100 nM; against PIK3CD (Human) [4], below 100 nM.
With `C[C@H](Nc1ncnc(N)c1C#N)c1cc2cccc(Cl)c2c(=O)n1-c1ccon1`, the IC50 against PIK3CG (human) is 100 to 1000 nM; at PIK3CB (Human) [1] it was above 10000 nM; against PIK3CA (human) [2], above 10000 nM; at PIK3CD (Human) [3], 100 to 1000 nM; against PIK3CD (Human) [4], below 100 nM.
In the case of `C[C@H](Nc1nc(N)ncc1C#N)c1cc2cccc(Cl)c2c(=O)n1-c1cc(F)cc(F)c1`, the IC50 at PIK3CG (human) is below 100 nM; against PIK3CB (Human) [1], above 10000 nM; against PIK3CA (human) [2], above 10000 nM; against PIK3CD (Human) [3] it was 100 to 1000 nM; at PIK3CD (Human) [4] it was below 100 nM.
`COc1nc(-c2cnc(N)nc2N[C@@H](C)c2cc3cccc(-c4ccc(=O)n(C)c4)c3c(=O)n2-c2ccccc2)cs1`: the concentration for half-maximal inhibition (IC50) was below 100 nM on PIK3CG (human); above 10000 nM against PIK3CB (Human) [1]; above 10000 nM against PIK3CA (human) [2]; below 100 nM against PIK3CD (Human) [3]; above 10000 nM on PIK3CA (human) [5]; above 10000 nM on PIK3CB (Human) [6]. Besides, at PIK3CD (Human) [4], the concentration for half-maximal inhibition (IC50) was below 100 nM.
Consider `CC(C)n1c([C@H](C)Nc2nc(N)ncc2C#N)cc2cccc(-c3ccc(=O)n(C)c3)c2c1=O`, for which the IC50 at PIK3CG (human) was 100 to 1000 nM; on PIK3CD (Human) [3], below 100 nM; against PIK3CB (Human) [6], 100 to 1000 nM; against PIK3CD (Human) [4], below 100 nM.
With `C[C@H](Nc1nc(N)ncc1-c1cccc(S(=O)(=O)N2CCCCC2)c1)c1cc2cccc(Cl)c2c(=O)n1-c1ccccc1`, the half-inhibitory concentration (IC50) at PIK3CG (human) was below 100 nM; at PIK3CB (Human) [1] it was 100 to 1000 nM; against PIK3CA (human) [2], 100 to 1000 nM; at PIK3CD (Human) [3], 100 to 1000 nM; on PIK3CD (Human) [4], below 100 nM.
As to `C[C@H](Nc1nc(N)ncc1-c1cn[nH]c1)c1cc2cccc(Cl)c2c(=O)n1-c1ccccc1`, the IC50 was below 100 nM against PIK3CG (human); above 10000 nM against PIK3CB (Human) [1]; above 10000 nM on PIK3CA (human) [2]; 100 to 1000 nM against PIK3CD (Human) [3]; below 100 nM on PIK3CD (Human) [4].
`C[C@H](Nc1nc(N)ncc1-c1cccc(S(=O)(=O)N2CCCC2)c1)c1cc2cccc(Cl)c2c(=O)n1-c1ccccc1`: the half-maximal inhibitory concentration (IC50) against PIK3CG (human) is below 100 nM; against PIK3CB (Human) [1], 100 to 1000 nM; against PIK3CA (human) [2] it was above 10000 nM; at PIK3CD (Human) [3] it was below 100 nM; on PIK3CD (Human) [4] it was below 100 nM.
`C[C@H](Nc1nc(N)ncc1-c1cccc(S(=O)(=O)N(C)C)c1)c1cc2cccc(Cl)c2c(=O)n1-c1ccccc1`: the half-inhibitory concentration (IC50) is below 100 nM on PIK3CG (human); 100 to 1000 nM against PIK3CB (Human) [1]; 100 to 1000 nM on PIK3CA (human) [2]; below 100 nM on PIK3CD (Human) [3]; below 100 nM at PIK3CD (Human) [4].
For the compound `Cc1ncc(-c2cccc3cc([C@H](C)Nc4ncnc(N)c4C#N)n(-c4ccon4)c(=O)c23)cn1`, the IC50 against PIK3CG (human) was above 10000 nM; at PIK3CB (Human) [1], above 10000 nM; on PIK3CA (human) [2], above 10000 nM; at PIK3CD (Human) [3] it was 100 to 1000 nM; at PIK3CD (Human) [4], below 100 nM.
`CC(=O)c1cnc(N)nc1N[C@@H](C)c1cc2cccc(Cl)c2c(=O)n1-c1ccccc1`: the IC50 is below 100 nM at PIK3CG (human); below 100 nM on PIK3CB (Human) [1]; 100 to 1000 nM against PIK3CA (human) [2]; below 100 nM at PIK3CD (Human) [3]; below 100 nM on PIK3CD (Human) [4].
On to `C[C@H](Nc1nc(N)ncc1-c1cscn1)c1cc2cccc(-c3ccc(=O)n(C)c3)c2c(=O)n1-c1ccccc1`, for which the IC50 was below 100 nM at PIK3CG (human); above 10000 nM at PIK3CB (Human) [1]; above 10000 nM against PIK3CA (human) [2]; below 100 nM against PIK3CD (Human) [3]; below 100 nM against PIK3CD (Human) [4].
Turning to `COc1cc(-c2cccc3cc(CNc4nc(N)ncc4C#N)n(-c4ccccc4)c(=O)c23)ccn1`, the half-maximal inhibitory concentration (IC50) is 100 to 1000 nM against PIK3CG (human); above 10000 nM against PIK3CB (Human) [1]; above 10000 nM at PIK3CA (human) [2]; below 100 nM at PIK3CD (Human) [3]; below 100 nM against PIK3CD (Human) [4].
Regarding `COc1ncc(-c2cccc3cc([C@H](C)Nc4nc(N)ncc4C#N)n(-c4ccccc4)c(=O)c23)cn1`, the IC50 is below 100 nM at PIK3CG (human); above 10000 nM on PIK3CB (Human) [1]; below 100 nM on PIK3CD (Human) [3]; above 10000 nM against PIK3CB (Human) [6]; below 100 nM at PIK3CD (Human) [4].
Regarding `C[C@H](Nc1nc(N)ncc1C#N)c1cc2cccc(Cl)c2c(C(=O)NC2CCOCC2)n1`, the IC50 at PIK3CG (human) is above 10000 nM; on PIK3CB (Human) [1] it was above 10000 nM; against PIK3CA (human) [2], above 10000 nM; against PIK3CA (human) [5], above 10000 nM; against PIK3CD (Human) [4], below 100 nM.
As for `C=CS(=O)(=O)Nc1cccc(-c2cnc(N)nc2N[C@@H](C)c2cc3cccc(Cl)c3c(=O)n2-c2ccccc2)c1`, the IC50 was below 100 nM on PIK3CG (human); 100 to 1000 nM at PIK3CB (Human) [1]; 100 to 1000 nM against PIK3CA (human) [2]; below 100 nM on PIK3CD (Human) [3]; below 100 nM against PIK3CD (Human) [4].
Turning to `C[C@H](Nc1nc(N)ncc1-c1ccoc1)c1cc2cccc(Cl)c2c(=O)n1-c1ccccc1`, the IC50 is below 100 nM against PIK3CG (human); above 10000 nM at PIK3CB (Human) [1]; above 10000 nM at PIK3CA (human) [2]; 100 to 1000 nM on PIK3CD (Human) [3]; below 100 nM on PIK3CD (Human) [4].
On to `CC(C)n1c([C@H](C)Nc2ncnc(N)c2C#N)cc2cccc(-c3ccc(=O)n(C)c3)c2c1=O`, for which the IC50 was 100 to 1000 nM on PIK3CG (human), below 100 nM at PIK3CD (Human) [3], 100 to 1000 nM against PIK3CB (Human) [6] and below 100 nM against PIK3CD (Human) [4].
For `CCOc1nc(-c2cnc(N)nc2N[C@@H](C)c2cc3cccc(-c4ccc(=O)n(C)c4)c3c(=O)n2-c2ccccc2)cs1`, the half-inhibitory concentration (IC50) against PIK3CG (human) was below 100 nM; against PIK3CD (Human) [3], below 100 nM; against PIK3CA (human) [5] it was 100 to 1000 nM; on PIK3CD (Human) [4] it was below 100 nM.
With `C[C@H](Nc1nc(N)ncc1-c1cncs1)c1cc2cccc(-c3ccc(=O)n(C)c3)c2c(=O)n1-c1ccccc1`, the IC50 on PIK3CG (human) was below 100 nM; on PIK3CB (Human) [1], above 10000 nM; against PIK3CA (human) [2] it was above 10000 nM; at PIK3CD (Human) [3], below 100 nM; against PIK3CD (Human) [4], below 100 nM.
As for `Cc1ncc(-c2cccc3cc([C@H](C)Nc4nc(N)ncc4C#N)n(C(C)C)c(=O)c23)cn1`, the IC50 against PIK3CB (Human) [1] is above 10000 nM; on PIK3CA (human) [2] it was above 10000 nM; against PIK3CD (Human) [3], below 100 nM; on PIK3CA (human) [5] it was 100 to 1000 nM; on PIK3CD (Human) [4] it was below 100 nM.
